Assay results from patent US20130224286A1, “METHODS AND COMPOSITIONS FOR TREATING POX VIRUS INFECTIONS” (priority 2010, published 2013).

How the values were obtained:
Vaccinia virus [1] = assay type: cell-based
HaCaT cells [2] = assay: Toxicity on cells, MTT assay (Example 4, FIG. 3); assay type: cell-based, human; conditions: 1 day exposure
Protocol: Toxicity of test compounds on uninfected cell monolayers was measured using the standard tetrazolium dye MTT.
Test of various agents (BP: Benzoyl peroxide), at the indicated concentrations on triplicates of HaCaT cells in 96-well plates (FIG. 3).
Toxicity on cells (left side of panel): Cell monolayers were exposed to agents as indicated, and 1 day later, cellular viability was analysed by a standard MTT assay (control OD was between 1.15 and 1.3).

Molluscum contagiosum = assay: Treatment of a patient with Molluscum contagiosum lesions (topical painting); assay type: in vivo, human; conditions: 50 mM in DMSO painted on lesions, one to two times per day for 5 days, after 4 weeks
Protocol: A patient, previously treated for Molluscum contagiosum infection with curettage, had two recurrences of Molluscum contagiosum. In each instance, a number of early lesions, which where in the elbow region or the lower jaw region respectively, were treated one to two times per day for 5 consecutive days. Treatment consisted of painting the lesions with a cotton stick, applying a solution of 50 mM Menadione dissolved in DMSO to the tip of the lesion. […] Concentrations of Menadione, its analogues and additional compounds used in this invention are as indicated below: […]

HaCaT cells [3] = conditions: 25 μM, 1 day, MTT
Vaccinia virus WR = assay type: cell-based
Vaccinia virus [4] = assay: Direct virocidal effect on Vaccinia virus, 24 h exposure, BS-C-1 plaque assay (Example 6, FIG. 5); assay type: cell-based; conditions: 50 μM, 24 h at 37° C.
Protocol: Direct virocidal effect of various agents on Vaccinia virus (24 h exposure) Triplicates of Vaccinia virus in a 96-well plate were incubated with agents at 50 μM final concentration for 24 h at 37° C. After incubation, virus was diluted 1000-fold and quantified in a standard 24-well BS-C-1 plaque assay.
The various agents used were as follows: BP: Benzoyl peroxide, D: Dicoumarol, DNCB: Dinitrochlorobenzene, DNFB: Dinitrofluorobenzene, K1: Vitamin K1, K2: Vitamin K2, Menadione (M is fresh, M* is Menadione kept at RT for 2 months), MBS: Menadione bisulfite and Control.

Row | SMILES | virus replication (Vaccinia virus [1]) | cell toxicity (HaCaT cells [2]) | state of the skin after treatment of Molluscum contagiosum lesions (Molluscum contagiosum) | effect on cell viability (HaCaT cells [3]) [%] | virus progeny (Vaccinia virus WR) | reduction of virus infectivity (direct virocidal effect) (Vaccinia virus [4]) [%]
1 | O=c1oc2ccccc2c(O)c1Cc1c(O)c2ccccc2oc1=O [Dicoumarol] | inhibition of virus replication | dose-dependent cell toxicity |  |  |  | 
2 | Oc1ccc(O)cc1 [Hydroquinone] | no effect | no effect |  |  |  | 
3 | CC1=CC(=O)c2ccccc2C1=O [Menadione, 2-methyl-1,4-naphthoquinone] |  |  | normal and without scar or discoloration | < 30 | reduced virus progeny in a dose-dependend manner | 
4 | CC1(S(=O)(=O)[O-])CC(=O)c2ccccc2C1=O.[Na+] (centres unmarked) [Menadione bisulfite] | inhibition of virus replication | dose-dependent cell toxicity |  |  | reduced virus progeny in a dose-dependend manner | 95
5 | O=C(OOC(=O)c1ccccc1)c1ccccc1 [BP, Benzoyl peroxide] | inhibition of virus replication | dose-dependent cell toxicity |  |  |  | 43
